# Biological target: Huntingtin (Homo sapiens, UniProt P42858)
# Experiment: Inhibition of Huntingtin protein (unknown origin) incubated for overnight in presence of MW1/MAB2166 monoclonal antibody by ELISA-based MSD electrochemiluminescence assay
# Sequence of Huntingtin (P42858 whole entry): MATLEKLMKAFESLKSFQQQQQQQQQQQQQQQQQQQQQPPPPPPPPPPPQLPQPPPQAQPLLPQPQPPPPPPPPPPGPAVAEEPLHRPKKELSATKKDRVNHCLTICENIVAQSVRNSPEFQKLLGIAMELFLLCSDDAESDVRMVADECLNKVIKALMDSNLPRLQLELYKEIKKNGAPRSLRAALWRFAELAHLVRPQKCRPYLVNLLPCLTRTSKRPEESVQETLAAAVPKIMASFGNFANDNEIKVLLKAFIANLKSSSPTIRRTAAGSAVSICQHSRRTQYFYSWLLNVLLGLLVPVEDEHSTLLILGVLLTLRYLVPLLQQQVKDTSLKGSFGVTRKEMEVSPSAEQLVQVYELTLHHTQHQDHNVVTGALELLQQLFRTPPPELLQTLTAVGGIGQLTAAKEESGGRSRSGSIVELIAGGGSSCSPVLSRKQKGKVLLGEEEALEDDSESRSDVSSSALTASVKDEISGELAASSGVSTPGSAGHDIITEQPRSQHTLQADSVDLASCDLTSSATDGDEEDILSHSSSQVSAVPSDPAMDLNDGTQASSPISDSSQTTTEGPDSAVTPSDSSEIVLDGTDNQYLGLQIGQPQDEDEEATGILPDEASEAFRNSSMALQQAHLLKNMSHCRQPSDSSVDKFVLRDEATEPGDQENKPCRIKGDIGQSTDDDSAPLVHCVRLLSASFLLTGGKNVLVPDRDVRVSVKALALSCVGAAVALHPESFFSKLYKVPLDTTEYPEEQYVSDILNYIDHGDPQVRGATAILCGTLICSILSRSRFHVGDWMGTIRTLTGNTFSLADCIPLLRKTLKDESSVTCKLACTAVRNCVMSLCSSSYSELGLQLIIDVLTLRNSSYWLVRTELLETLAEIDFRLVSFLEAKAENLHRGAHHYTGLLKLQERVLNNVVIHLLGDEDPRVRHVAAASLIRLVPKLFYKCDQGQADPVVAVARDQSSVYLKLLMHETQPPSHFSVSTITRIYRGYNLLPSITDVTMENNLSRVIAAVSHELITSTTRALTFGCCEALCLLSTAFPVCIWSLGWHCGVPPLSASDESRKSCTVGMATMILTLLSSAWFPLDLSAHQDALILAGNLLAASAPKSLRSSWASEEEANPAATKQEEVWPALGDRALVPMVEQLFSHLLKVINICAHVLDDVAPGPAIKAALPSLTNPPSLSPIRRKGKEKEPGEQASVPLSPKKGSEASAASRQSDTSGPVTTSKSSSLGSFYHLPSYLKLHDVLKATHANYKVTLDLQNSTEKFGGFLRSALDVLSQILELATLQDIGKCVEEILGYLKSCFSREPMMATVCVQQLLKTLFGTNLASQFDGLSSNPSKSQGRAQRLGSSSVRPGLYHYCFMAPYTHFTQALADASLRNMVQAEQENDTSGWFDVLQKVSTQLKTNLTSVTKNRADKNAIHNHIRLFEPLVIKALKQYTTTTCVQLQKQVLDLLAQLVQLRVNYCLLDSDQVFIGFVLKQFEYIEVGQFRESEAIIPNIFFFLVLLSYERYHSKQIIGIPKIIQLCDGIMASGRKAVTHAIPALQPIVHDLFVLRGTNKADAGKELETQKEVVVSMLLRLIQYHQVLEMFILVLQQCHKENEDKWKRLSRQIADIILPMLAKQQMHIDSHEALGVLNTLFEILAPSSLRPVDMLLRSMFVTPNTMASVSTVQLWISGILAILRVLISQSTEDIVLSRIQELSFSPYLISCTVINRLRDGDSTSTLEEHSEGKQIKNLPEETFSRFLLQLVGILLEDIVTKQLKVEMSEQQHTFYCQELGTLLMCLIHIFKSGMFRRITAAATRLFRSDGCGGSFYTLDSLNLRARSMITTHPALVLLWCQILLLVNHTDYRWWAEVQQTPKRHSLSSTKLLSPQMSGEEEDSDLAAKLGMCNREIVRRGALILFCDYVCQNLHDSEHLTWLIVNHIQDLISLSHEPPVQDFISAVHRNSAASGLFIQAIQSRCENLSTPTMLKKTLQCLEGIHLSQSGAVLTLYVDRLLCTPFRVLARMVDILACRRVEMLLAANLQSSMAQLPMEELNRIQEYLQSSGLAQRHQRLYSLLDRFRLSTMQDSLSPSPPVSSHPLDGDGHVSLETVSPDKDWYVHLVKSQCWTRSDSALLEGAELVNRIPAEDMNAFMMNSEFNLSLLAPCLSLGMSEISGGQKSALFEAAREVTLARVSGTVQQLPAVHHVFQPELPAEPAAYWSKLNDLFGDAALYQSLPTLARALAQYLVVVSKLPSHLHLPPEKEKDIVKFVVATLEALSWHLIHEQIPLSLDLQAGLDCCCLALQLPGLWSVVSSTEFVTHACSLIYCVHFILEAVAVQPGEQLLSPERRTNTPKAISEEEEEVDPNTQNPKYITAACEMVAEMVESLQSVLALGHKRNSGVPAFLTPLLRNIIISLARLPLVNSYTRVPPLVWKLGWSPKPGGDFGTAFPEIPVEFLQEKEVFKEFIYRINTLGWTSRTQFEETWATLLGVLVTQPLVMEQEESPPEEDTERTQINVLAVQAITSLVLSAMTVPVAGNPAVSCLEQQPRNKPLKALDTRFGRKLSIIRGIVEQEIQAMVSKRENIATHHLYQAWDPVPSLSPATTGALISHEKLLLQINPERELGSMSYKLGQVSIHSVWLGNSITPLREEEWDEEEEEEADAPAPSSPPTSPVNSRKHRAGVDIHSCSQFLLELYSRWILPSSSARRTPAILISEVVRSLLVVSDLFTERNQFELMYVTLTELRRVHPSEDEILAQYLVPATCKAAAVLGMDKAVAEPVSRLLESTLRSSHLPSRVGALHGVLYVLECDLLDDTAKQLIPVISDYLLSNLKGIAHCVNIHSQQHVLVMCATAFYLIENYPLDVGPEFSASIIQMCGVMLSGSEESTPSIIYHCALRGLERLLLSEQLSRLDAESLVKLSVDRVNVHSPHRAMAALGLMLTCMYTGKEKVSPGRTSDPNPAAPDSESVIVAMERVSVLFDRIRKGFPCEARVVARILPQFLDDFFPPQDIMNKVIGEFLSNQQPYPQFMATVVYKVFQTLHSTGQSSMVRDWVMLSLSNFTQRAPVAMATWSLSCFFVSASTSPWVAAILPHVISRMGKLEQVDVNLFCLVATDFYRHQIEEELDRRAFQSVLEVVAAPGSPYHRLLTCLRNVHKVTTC
row,Structure (SMILES),IC50
1,Cn1cc(-c2ccc(-c3cnc(NC4CC(C)(C)NC(C)(C)C4)nn3)c(O)c2)cn1,≤ 100 nM
2,CN(c1cnc(-c2ccc(-c3cn[nH]c3F)cc2O)nn1)C1CC(C)(C)NC(C)(C)C1,≤ 100 nM
3,CN(c1cnc(-c2ccc(-n3nccn3)cc2O)nn1)C1CC(C)(C)NC(C)(C)C1,≤ 100 nM
4,CN(c1ncc(-c2ccc(-c3ncco3)cc2O)nn1)C1CC(C)(C)NC(C)(C)C1,≤ 100 nM
5,CC1(C)CC(Nc2cnc(-c3ccc(-c4cn[nH]c4)cc3O)nn2)C(F)C(C)(C)N1 (stereo unspecified),≤ 100 nM
6,CC(C)(C)NC1CCN(c2ncc(-c3ccc(-c4c[nH]nc4C#N)cc3O)nn2)C1 (stereo unspecified),≤ 100 nM

# — ChEMBL document CHEMBL4715900, “Novel Substituted Monocyclic Heteroaryl Compounds for Treating Huntington's Disease” (ACS Med Chem Lett, 2021)
